Structures are written as SMILES.

As a reminder, the IC50 is the point on the concentration scale where inhibition reaches its midpoint. A high value points to lower potency. In general, AUC refers to the area under the concentration-time curve, a measure of exposure. Read a low AUC as low exposure. The Cmax is the peak of the concentration-time curve.

One series deals with HDAC2 (Homo sapiens (Human), UniProt Q92769). Description: HDAC enzyme assay HDAC2. The class given is biochemical. The method, then: Compounds for testing were diluted in DMSO to 50 fold the final concentration and a ten-point three-fold dilution series was made. The compounds were diluted in assay buffer (50 mM HEPES, pH 7.4, 100 mM KCl, 0.001% Tween-20, 0.05% BSA, 20 μM TCEP) to 6-fold their final concentration. The HDAC enzymes (purchased from BPS Biosciences) were diluted to 1.5-fold their final concentration in assay buffer. The tripeptide substrate and trypsin at 0.05 μM final concentration were diluted in assay buffer at 6-fold their final concentration. The final enzyme concentrations used in these assays were 3.3 ng/ml (HDAC1), 0.2 ng/ml (HDAC2) and 0.08 ng/ml (HDAC3). The final substrate concentrations used were 16 μM (HDAC1), 10 μM (HDAC2) and 17 μM (HDAC3).
Five μl of compounds and 20 μl of enzyme were added to wells of a black, opaque 384 well plate in duplicate. Enzyme and compound were incubated together at room temperature for 10 minutes. Five μl of substrate was added to each well, the plate was shaken for 60 seconds and placed into a Victor 2 microtiter plate reader. The development of fluorescence was monitored for 60 min and the linear rate of the reaction was calculated. The IC50 was determined using Graph Pad Prism by a four parameter curve fit.

For the next series, the target named is HDAC3 (Homo sapiens (Human), UniProt O15379). Nature of the series: HDAC enzyme assay HDAC3. In kind it is biochemical. The method, then: Compounds for testing were diluted in DMSO to 50 fold the final concentration and a ten-point three-fold dilution series was made. The compounds were diluted in assay buffer (50 mM HEPES, pH 7.4, 100 mM KCl, 0.001% Tween-20, 0.05% BSA, 20 μM TCEP) to 6-fold their final concentration. The HDAC enzymes (purchased from BPS Biosciences) were diluted to 1.5-fold their final concentration in assay buffer. The tripeptide substrate and trypsin at 0.05 μM final concentration were diluted in assay buffer at 6-fold their final concentration. The final enzyme concentrations used in these assays were 3.3 ng/ml (HDAC1), 0.2 ng/ml (HDAC2) and 0.08 ng/ml (HDAC3). The final substrate concentrations used were 16 μM (HDAC1), 10 μM (HDAC2) and 17 μM (HDAC3). Five μl of compounds and 20 μl of enzyme were added to wells of a black, opaque 384 well plate in duplicate. Enzyme and compound were incubated together at room temperature for 10 minutes. Five μl of substrate was added to each well, the plate was shaken for 60 seconds and placed into a Victor 2 microtiter plate reader. The development of fluorescence was monitored for 60 min and the linear rate of the reaction was calculated. The IC50 was determined using Graph Pad Prism by a four parameter curve fit. In Table 4 below, letter designations are defined as follows: […]

In the next series the target is HDAC1 (Homo sapiens (Human), UniProt Q13547). Nature of the series: HDAC enzyme assay HDAC1. In kind it is biochemical.
Series [1] is described as follows: Rat pharmacokinetics, cassette dosing (IV and PO). In kind it is in vivo. Conditions: rat, plasma, male SD rats; for bioavailability: 5 mg/kg, oral AUC to IV AUC, dose adjusted; for IV clearance: IV 1 mg/kg; for AUC / Cmax / half-life: PO 5 mg/kg; for half-life: read-out: PO T½ (converted). The method, then:
Male SD rats were fasted overnight. Compounds of the invention were dissolved in dimethyl acetamide at 10 times the final concentration, then Solutol HS 15 (BASF) was added to a final concentration of 10%. Finally 80% saline was added and vortexed to achieve a clear solution. For the IV dosing three animals were injected via the foot dorsal vein with 1 mg/kg compound. For the PO dosing 5 mg/kg of compound was delivered by oral gavage. Blood was collected via the tail vein into K2EDTA tubes at 5 minutes, 15 minutes, 30 minutes, 1 hour, 2 hours, 4 hours, 8 hours and 24 hours after dosing. The blood was centrifuged at 2000 g for 5 minutes at 4° C. to obtain plasma. The plasma was extracted with acetonitrile and the level of compound was analyzed by LC/MS/MS. The level of compound in plasma was calculated from a standard curve in rat plasma. The IV clearance (L/h/kg) and area under the curve (h*ng/mL) were calculated using WinNonLin software. The dose adjusted area under the curve for the IV and oral dosing were used to calculate the oral bioavailability.
Pharmacokinetic properties were assessed in a rat cassette dosing experiment. The IV clearance (IV Clr.) is in units of L/hr/kg. The oral maximum plasma concentration (PO Cmax) is in units of ng/ml. The oral plasma half-life (PO T½) is in units of hours. The oral area under the curve (PO AUC) is in units of hours*ng/ml. The fraction absorbed by the oral route (F %) is a percentage of the oral area under the curve to the IV area under the curve, dose adjusted.

HDAC2, sequence (Q92769 whole entry): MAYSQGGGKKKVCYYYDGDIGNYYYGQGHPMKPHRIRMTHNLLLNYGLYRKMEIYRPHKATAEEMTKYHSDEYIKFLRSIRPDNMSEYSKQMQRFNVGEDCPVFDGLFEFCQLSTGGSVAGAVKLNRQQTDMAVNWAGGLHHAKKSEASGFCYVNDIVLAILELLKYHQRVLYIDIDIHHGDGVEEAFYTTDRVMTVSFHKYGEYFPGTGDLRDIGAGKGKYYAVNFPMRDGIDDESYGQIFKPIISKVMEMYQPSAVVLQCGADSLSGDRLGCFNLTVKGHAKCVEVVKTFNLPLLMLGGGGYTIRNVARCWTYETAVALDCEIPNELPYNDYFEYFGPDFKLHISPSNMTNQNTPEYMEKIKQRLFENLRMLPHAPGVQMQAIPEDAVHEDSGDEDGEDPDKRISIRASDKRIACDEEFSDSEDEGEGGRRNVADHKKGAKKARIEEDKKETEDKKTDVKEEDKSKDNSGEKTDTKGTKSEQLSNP
HDAC3, sequence (O15379 whole entry): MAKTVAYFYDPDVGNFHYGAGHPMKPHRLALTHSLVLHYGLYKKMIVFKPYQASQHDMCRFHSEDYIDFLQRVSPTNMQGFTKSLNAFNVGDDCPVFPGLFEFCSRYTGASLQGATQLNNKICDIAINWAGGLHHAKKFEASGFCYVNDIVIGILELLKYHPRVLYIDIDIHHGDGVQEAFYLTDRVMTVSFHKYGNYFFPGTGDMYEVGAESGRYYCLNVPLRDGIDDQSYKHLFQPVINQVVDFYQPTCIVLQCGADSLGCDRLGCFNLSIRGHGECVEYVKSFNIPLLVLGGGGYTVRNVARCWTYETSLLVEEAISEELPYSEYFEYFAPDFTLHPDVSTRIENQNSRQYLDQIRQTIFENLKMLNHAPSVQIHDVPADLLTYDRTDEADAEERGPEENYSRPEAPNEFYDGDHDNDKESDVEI
HDAC3, sequence (Q9Y618 395-489 partner): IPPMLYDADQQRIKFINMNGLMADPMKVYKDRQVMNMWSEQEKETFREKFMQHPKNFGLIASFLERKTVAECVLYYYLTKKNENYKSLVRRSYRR
HDAC1, sequence (Q13547 whole entry): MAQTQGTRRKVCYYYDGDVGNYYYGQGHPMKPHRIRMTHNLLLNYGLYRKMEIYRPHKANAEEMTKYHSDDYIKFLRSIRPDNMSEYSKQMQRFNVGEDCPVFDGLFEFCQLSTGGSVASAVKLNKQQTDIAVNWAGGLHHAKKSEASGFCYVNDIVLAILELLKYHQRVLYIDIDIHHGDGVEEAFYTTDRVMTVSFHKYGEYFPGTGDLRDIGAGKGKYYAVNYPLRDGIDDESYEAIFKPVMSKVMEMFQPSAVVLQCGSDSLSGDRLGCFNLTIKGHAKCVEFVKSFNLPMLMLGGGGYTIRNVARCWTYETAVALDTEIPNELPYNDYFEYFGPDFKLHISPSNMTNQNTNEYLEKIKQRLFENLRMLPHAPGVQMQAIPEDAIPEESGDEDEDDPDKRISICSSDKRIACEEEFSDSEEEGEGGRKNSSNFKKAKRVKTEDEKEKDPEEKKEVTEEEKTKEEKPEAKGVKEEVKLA

Regarding `CN1CCN(c2ccc(C(=O)Nc3cc(-c4ccccc4)ccc3N)cn2)CC1` [Compound 070], the IC50 was 0.01 to 0.5 µM against HDAC2, 0.01 to 0.5 µM against HDAC3 and under 0.01 µM at HDAC1.

Consider `Nc1ccc(-c2ccc(F)cc2)cc1NC(=O)c1ncc(N2CCNCC2)s1` [Compound 053], for which the half-inhibitory concentration (IC50) at HDAC2 is under 0.01 µM; on HDAC3 it was 0.01 to 0.5 µM; against HDAC1 it was under 0.01 µM.

For `Nc1ccc(-c2ccoc2)cc1NC(=O)c1ccc(N2CCNCC2)s1` [Compound 066], the values for the IC50 at HDAC2, against HDAC3 and on HDAC1 were 0.01 to 0.5 µM, 0.01 to 0.5 µM and under 0.01 µM, respectively.

Consider `Nc1ccc(-c2ccc(F)cc2)cc1NC(=O)c1nc(N2CCNCC2)cs1` [Compound 058], for which the IC50 on HDAC2, on HDAC3 and against HDAC1 was 0.01 to 0.5 µM throughout.

`Nc1ccc(-c2cc(F)cc(F)c2)cc1NC(=O)c1ccc(N2CCNCC2)cn1` [Compound 084]: the IC50 against HDAC2, at HDAC3 and against HDAC1 was over 0.5 µM in each case.

As for `Nc1ccc(-c2ccncc2)cc1NC(=O)c1cnc(N2CCNCC2)cn1` [Compound 089], the IC50 at HDAC2, on HDAC3 and on HDAC1 was 0.01 to 0.5 µM each time.

On to `Nc1ccc(-c2ccccc2)cc1NC(=O)c1ccc(N2CCNCC2)s1` [Compound 064], for which the figures for the IC50 against HDAC2, against HDAC3 and at HDAC1 were 0.01 to 0.5 µM, 0.01 to 0.5 µM and under 0.01 µM, respectively.

Turning to `Nc1ccc(-c2cccs2)cc1NC(=O)c1ccc(N2CCNCC2)cc1` [Compound 012], in series [1], the bioavailability is 93.9%, the IV clearance was 8.83 mL/min/kg, the AUC stood at 8190 ng·h/mL and the peak level (Cmax) was 534 ng/mL. Moreover, the half-life in series [1] is 7.7 h.

In the case of `Nc1ccc(-c2ccoc2)cc1NC(=O)c1cnc(N2CCNCC2)s1` [Compound 046], the IC50 against HDAC2 was 0.01 to 0.5 µM; against HDAC3 it was 0.01 to 0.5 µM; against HDAC1, under 0.01 µM.

On to `Nc1ccc(-c2ccccc2F)cc1NC(=O)c1ccc(N2CCNCC2)nc1` [Compound 076], for which the IC50 is 0.01 to 0.5 µM at HDAC2, 0.01 to 0.5 µM on HDAC3 and under 0.01 µM against HDAC1.

Turning to `Nc1ccc(-c2ccoc2)cc1NC(=O)c1ncc(N2CCNCC2)s1` [Compound 051], the IC50 on HDAC2 was under 0.01 µM; at HDAC3, 0.01 to 0.5 µM; at HDAC1, under 0.01 µM.

In the case of `CN1CCN(c2ccc(C(=O)Nc3cc(-c4cccs4)ccc3N)nc2)CC1` [Compound 080], the values for the half-maximal inhibitory concentration (IC50) against HDAC2, at HDAC3 and at HDAC1 were under 0.01 µM, 0.01 to 0.5 µM and under 0.01 µM, respectively.

On to `Nc1ccc(-c2ccco2)cc1NC(=O)c1ccc(N2CCNCC2)cc1` [Compound 013], for which, in series [1], the bioavailability turned out to be 105%, the IV clearance is 13 mL/min/kg, the AUC came to 5780 ng·h/mL and the Cmax was determined as 425 ng/mL. Besides, the half-life in series [1] is 8.1 h.

Consider `Nc1ccc(-c2ccncc2)cc1NC(=O)c1ccc(N2CCNCC2)nc1` [Compound 010], for which, in series [1], the bioavailability turned out to be 12.6%, the IV clearance is 18.3 mL/min/kg, the AUC was 570 ng·h/mL and the highest level (Cmax) was 164 ng/mL. The half-life in series [1] is 4.7 h.

Turning to `Nc1ccc(-c2ccccc2)cc1NC(=O)c1ccc2nc(N3CCNCC3)ccc2c1` [Compound 002], in series [1], the bioavailability worked out at 86.1%, the IV clearance was 2 mL/min/kg, the exposure (AUC) is 34600 ng·h/mL and the Cmax amounted to 3750 ng/mL. Also, the half-life in series [1] was 5.9 h.

For `CN1CCN(c2ccc(C(=O)Nc3cc(-c4ccco4)ccc3N)cn2)CC1` [Compound 074], the IC50 on HDAC2 is 0.01 to 0.5 µM; on HDAC3, 0.01 to 0.5 µM; against HDAC1, under 0.01 µM.

Regarding `Nc1ccc(-c2ccccn2)cc1NC(=O)c1ccc(N2CCNCC2)cn1` [Compound 081], the IC50 against HDAC2 is 0.01 to 0.5 µM; against HDAC3, over 0.5 µM; against HDAC1 it was 0.01 to 0.5 µM.

Regarding `CN1CCN(c2ccc(C(=O)Nc3cc(-c4ccccc4)ccc3N)nc2)CC1` [Compound 079], the half-inhibitory concentration (IC50) against HDAC2 is 0.01 to 0.5 µM; against HDAC3 it was 0.01 to 0.5 µM; on HDAC1, under 0.01 µM.

In the case of `Cc1nc(C(=O)Nc2cc(-c3ccco3)ccc2N)sc1N1CCNCC1` [Compound 042], the IC50 against HDAC2 is 0.01 to 0.5 µM; on HDAC3, 0.01 to 0.5 µM; against HDAC1, under 0.01 µM.

For `Nc1ccc(-c2ccncc2)cc1NC(=O)c1ccc(N2CCNCC2)s1` [Compound 067], the IC50 is 0.01 to 0.5 µM against HDAC2, 0.01 to 0.5 µM on HDAC3 and under 0.01 µM at HDAC1.

Take `Nc1ccc(-c2ccoc2)cc1NC(=O)c1ccc2nc(N3CCNCC3)ccc2c1` [Compound 004]: in series [1], the bioavailability worked out at 90.8%, the IV clearance is 0.667 mL/min/kg, the AUC worked out at 91900 ng·h/mL and the concentration peaked (Cmax) at 10400 ng/mL. For the same compound, the half-life in series [1] is 4.3 h.

Regarding `Nc1ccc(-c2ccco2)cc1NC(=O)c1cnc2cc(N3CCNCC3)ccc2c1` [Compound 024], in series [1], the bioavailability was determined as 36.3%, the IV clearance is 3.5 mL/min/kg, the AUC turned out to be 8220 ng·h/mL and the highest concentration (Cmax) stood at 1000 ng/mL. In addition, the half-life in series [1] was 4.4 h.

On to `Nc1ccc(-c2cccs2)cc1NC(=O)c1cnc2cc(N3CCNCC3)ccc2c1` [Compound 023], for which, in series [1], the bioavailability came out at 51.2%, the IV clearance is 6 mL/min/kg, the AUC was found to be 6370 ng·h/mL and the Cmax turned out to be 664 ng/mL. Also, the half-life in series [1] was 8.5 h.

Consider `Cc1nc(C(=O)Nc2cc(-c3cccs3)ccc2N)sc1N1CCNCC1` [Compound 041], for which the figures for the IC50 on HDAC2, against HDAC3 and on HDAC1 were 0.01 to 0.5 µM, 0.01 to 0.5 µM and under 0.01 µM, respectively.

With `Nc1ccc(-c2ccco2)cc1NC(=O)c1ncc(N2CCNCC2)s1` [Compound 050], the IC50 was 0.01 to 0.5 µM against HDAC2, 0.01 to 0.5 µM against HDAC3 and under 0.01 µM against HDAC1.

As for `Nc1ccc(-c2ccco2)cc1NC(=O)c1ccc(N2CCNCC2)nc1` [Compound 008], in series [1], the bioavailability is 100%, the IV clearance is 14.3 mL/min/kg, the AUC is 5540 ng·h/mL and the Cmax was 536 ng/mL. For the same compound, the half-life in series [1] is 5.6 h.

As to `Nc1ccc(-c2cccs2)cc1NC(=O)c1ccc(N2CCNCC2)s1` [Compound 033], in series [1], the bioavailability is 191%, the IV clearance is 10.8 mL/min/kg, the AUC stood at 10700 ng·h/mL and the highest level (Cmax) was 614 ng/mL. Further, in series [1], the half-life is 13.7 h.

In the case of `CN1CCN(c2ccc(C(=O)Nc3cc(-c4cccs4)ccc3N)cn2)CC1` [Compound 071], the IC50 on HDAC2 and against HDAC3 was 0.01 to 0.5 µM each time.

Turning to `Nc1ccc(-c2ccccc2)cc1NC(=O)c1ncc(N2CCNCC2)s1` [Compound 049], the IC50 against HDAC2 and against HDAC3 was 0.01 to 0.5 µM throughout.

Regarding `Nc1ccc(-c2ccoc2)cc1NC(=O)c1ccc(N2CCNCC2)cc1` [Compound 014], in series [1], the bioavailability came to 97%, the IV clearance is 11 mL/min/kg, the AUC was 7100 ng·h/mL and the concentration peaked (Cmax) at 727 ng/mL. The half-life in series [1] was 4.9 h.

Values taken from patent US10385031B2, “Substituted piperazines as selective HDAC1,2 inhibitors” (Regenacy Pharmaceuticals, LLC, priority 2016, dated 2019).
